In general, IC50 refers to the concentration that gives 50% inhibition. What is called inhibition is the relative decrease from the control value, in per cent.

Chain of Human VPS34 (Q8NEB9 whole entry): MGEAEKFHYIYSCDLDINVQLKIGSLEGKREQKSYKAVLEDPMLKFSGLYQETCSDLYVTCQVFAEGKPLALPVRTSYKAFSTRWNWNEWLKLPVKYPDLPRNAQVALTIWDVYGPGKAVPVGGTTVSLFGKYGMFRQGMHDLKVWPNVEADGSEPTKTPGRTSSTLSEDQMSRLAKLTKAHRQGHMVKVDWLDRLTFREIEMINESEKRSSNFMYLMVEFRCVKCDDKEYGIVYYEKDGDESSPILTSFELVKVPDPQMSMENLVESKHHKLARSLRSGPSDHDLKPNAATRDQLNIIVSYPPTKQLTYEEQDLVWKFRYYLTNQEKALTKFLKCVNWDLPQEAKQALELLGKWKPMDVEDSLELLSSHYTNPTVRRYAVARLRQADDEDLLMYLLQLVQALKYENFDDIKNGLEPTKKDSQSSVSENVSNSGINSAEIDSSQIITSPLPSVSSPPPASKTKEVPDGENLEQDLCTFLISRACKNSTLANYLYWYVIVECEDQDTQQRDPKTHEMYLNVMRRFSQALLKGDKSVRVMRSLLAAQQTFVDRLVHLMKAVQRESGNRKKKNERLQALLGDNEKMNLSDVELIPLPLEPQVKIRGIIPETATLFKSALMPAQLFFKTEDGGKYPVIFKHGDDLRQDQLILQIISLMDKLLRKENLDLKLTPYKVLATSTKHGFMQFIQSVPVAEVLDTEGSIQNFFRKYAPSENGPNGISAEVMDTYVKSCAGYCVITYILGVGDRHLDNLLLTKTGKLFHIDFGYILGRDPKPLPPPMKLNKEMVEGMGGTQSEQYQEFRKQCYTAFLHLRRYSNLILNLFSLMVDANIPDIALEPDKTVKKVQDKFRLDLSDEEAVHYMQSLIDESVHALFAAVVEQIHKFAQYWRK

One assay addresses Human VPS34 (Homo sapiens (Human), UniProt Q8NEB9). Briefly: Human VPS34 enzyme assay (Adapta TR-FRET). Format: biochemical. To be noted: IC50 range class.
`CC(=O)Nc1cc(-c2cnc(C)c(NS(=O)(=O)c3nccn3C)c2)ccn1` [Compound I-92, N-(6-methyl-5-{[(1-methyl-1H-imidazol-2-yl)sulfonyl]amino}-3,4′-bipyridin-2′-yl)acetamide] yielded a half-inhibitory concentration (IC50) of 10 to 50 nM.

Staying with this assay, now noted: compound concentration 1.11 μM; read-out: Percent Inhibition.
Take `CC(=O)Nc1cc(-c2cnc(C)c(NS(=O)(=O)c3ccc(C)cc3)c2)ccn1` [Compound I-80, N-(6-methyl-5-{[(4-methylphenyl)sulfonyl]amino}-3,4′-bipyridin-2′-yl)acetamide]: the inhibition at 1.11 µM was above 99%.

Regarding `CC(=O)Nc1cc(-c2cnc(N)c(C(=O)N3CCC(C)CC3)c2)ccn1` [Compound I-81, N-{6-amino-5-[(4-methylpiperidin-1-yl)carbonyl]-3,4′-bipyridin-2′-yl}acetamide], the inhibition at 1.11 µM is above 99%.

In the case of `CC(=O)Nc1cc(-c2cnc(N)c(C(=O)Nc3cccc(F)c3)c2)ccn1` [Compound I-82, 2′-acetamido-6-amino-N-(3-fluorophenyl)-3,4′-bipyridine-5-carboxamide], the inhibition at 1.11 µM was above 99%.

On to `CC(=O)Nc1cc(-c2cnc(C)c(N(CC3CC3)S(=O)(=O)C3CC3)c2)ccn1` [Compound I-83, N-{5-[(cyclopropylmethyl)(cyclopropylsulfonyl)amino]-6-methyl-3,4′-bipyridin-2′-yl}acetamide], for which the inhibition at 1.11 µM was 82%.

For the molecule `CC(=O)Nc1cc(-c2cnc(C)c(NS(=O)(=O)c3ccccc3)c2)ccn1` [Compound I-84, N-{6-methyl-5-[(phenylsulfonyl)amino]-3,4′-bipyridin-2′-yl}acetamide], the inhibition at 1.11 µM is above 99%.

`CC(=O)Nc1cc(-c2cnc3[nH]cc(CN(C)C)c3c2)ccn1` [Compound I-85]: the inhibition at 1.11 µM came to 90%.

As for `CC(=O)Nc1cc(-c2ccc(S(=O)(=O)Nc3cc(-c4ccnc(NC(C)=O)c4)cnc3C)c(F)c2)ccn1` [Compound I-86, N-(4-{4-[(2′-acetamido-6-methyl-3,4′-bipyridin-5-yl)sulfamoyl]-3-fluorophenyl}pyridin-2-yl)acetamide], the inhibition at 1.11 µM is above 99%.

For `CC(=O)Nc1cc(-c2cnc(N)c(S(=O)(=O)N3CCCC3)c2)ccn1` [Compound I-87, N-[6-amino-5-(pyrrolidin-1-ylsulfonyl)-3,4′-bipyridin-2′-yl]acetamide], the inhibition at 1.11 µM is above 99%.

For the molecule `CC(=O)Nc1cc(-c2cnc(C)c(N3CCCS3(=O)=O)c2)ccn1` [Compound I-88, N-[5-(1,1-dioxidoisothiazolidin-2-yl)-6-methyl-3,4′-bipyridin-2′-yl]acetamide], the inhibition at 1.11 µM was above 99%.

Consider `CNS(=O)(=O)c1cc(-c2ccnc(NC(C)=O)c2)cnc1N` [Compound I-89, N-[6-amino-5-(methylsulfamoyl)-3,4′-bipyridin-2′-yl]acetamide], for which the inhibition at 1.11 µM is above 99%.

Take `CC(=O)Nc1cc(-c2cnc(C)c(NS(=O)(=O)c3ccc(C(F)(F)F)cc3)c2)ccn1` [Compound I-90, N-[6-methyl-5-({[4-(trifluoromethyl)phenyl]sulfonyl}amino)-3,4′-bipyridin-2′-yl]acetamide]: the inhibition at 1.11 µM was above 99%.

Consider `CC(=O)Nc1cc(-c2cnc(N)c(C(=O)Nc3cccnc3)c2)ccn1` [Compound I-91, 2′-acetamido-6-amino-N-(pyridin-3-yl)-3,4′-bipyridine-5-carboxamide], for which the inhibition at 1.11 µM is above 99%.

With `CC(=O)Nc1cc(-c2cnc(C)c(NS(=O)(=O)c3nccn3C)c2)ccn1` [Compound I-92, N-(6-methyl-5-{[(1-methyl-1H-imidazol-2-yl)sulfonyl]amino}-3,4′-bipyridin-2′-yl)acetamide], the inhibition at 1.11 µM is above 99%.

For `CC(=O)Nc1cc(-c2cnc3ccn(CC4CC4)c3c2)ccn1` [Compound I-93], the inhibition at 1.11 µM stood at 86%.

In the case of `CC(=O)Nc1cc(-c2cnc(C)c(NS(=O)(=O)c3ccc(Cl)cc3F)c2)ccn1` [Compound I-94, N-(5-{[(4-chloro-2-fluorophenyl)sulfonyl]amino}-6-methyl-3,4′-bipyridin-2′-yl)acetamide], the inhibition at 1.11 µM was 98%.

Consider `CC(=O)Nc1cc(-c2cnc(N)c(S(C)(=O)=O)c2)ccn1` [Compound I-95, N-[6-amino-5-(methylsulfonyl)-3,4′-bipyridin-2′-yl]acetamide], for which the inhibition at 1.11 µM was above 99%.

For the molecule `CC(=O)Nc1cc(-c2cnc(C)c(N(C)S(C)(=O)=O)c2)ccn1` [Compound I-96, N-{6-methyl-5-[methyl(methylsulfonyl)amino]-3,4′-bipyridin-2′-yl}acetamide], the inhibition at 1.11 µM is above 99%.

On to `CC(=O)Nc1cc(-c2cnc(N)c(S(=O)(=O)Nc3cccc(Cl)c3)c2)ccn1` [Compound I-97, N-{6-amino-5-[(3-chlorophenyl)sulfamoyl]-3,4′-bipyridin-2′-yl}acetamide], for which the inhibition at 1.11 µM was above 99%.

Consider `CC(=O)Nc1cc(-c2cnc(N)c(S(=O)(=O)Nc3ccc4ccccc4c3)c2)ccn1` [Compound I-98, N-[6-amino-5-(2-naphthylsulfamoyl)-3,4′-bipyridin-2′-yl]acetamide], for which the inhibition at 1.11 µM is above 99%.

Regarding `CC(=O)Nc1cc(-c2cnc(N)c(S(=O)(=O)Cc3ccc(Cl)cc3)c2)ccn1` [Compound I-99, N-{6-amino-5-[(4-chlorobenzyl)sulfonyl]-3,4′-bipyridin-2′-yl}acetamide], the inhibition at 1.11 µM is above 99%.

Take `CNc1ncc(-c2ccnc(NC(C)=O)c2)cc1S(=O)(=O)Nc1ccccc1` [Compound I-100, N-[6-(methylamino)-5-(phenylsulfamoyl)-3,4′-bipyridin-2′-yl]acetamide]: the inhibition at 1.11 µM was above 99%.

Turning to `CC(=O)Nc1cc(-c2cnc(N)c(S(=O)(=O)NC3CCCCC3)c2)ccn1` [Compound I-101, N-[6-amino-5-(cyclohexylsulfamoyl)-3,4′-bipyridin-2′-yl]acetamide], the inhibition at 1.11 µM was above 99%.

For the molecule `CC(=O)Nc1cc(-c2cncc(NS(=O)(=O)c3ccc(F)cc3F)c2C)ccn1` [Compound I-102, N-(5-{[(2,4-difluorophenyl)sulfonyl]amino}-4-methyl-3,4′-bipyridin-2′-yl)acetamide], the inhibition at 1.11 µM is above 99%.

Consider `CC(=O)Nc1cc(-c2cnc3[nH]cc(S(=O)(=O)N4CCN(C)CC4)c3c2)ccn1` [Compound I-103, N-(4-{3-[(4-methylpiperazin-1-yl)sulfonyl]-1H-pyrrolo[2,3-b]pyridin-5-yl}pyridin-2-yl)acetamide], for which the inhibition at 1.11 µM is above 99%.

Regarding `COc1ncc(-c2ccnc(NC(C)=O)c2)cc1NS(=O)(=O)c1ccc(F)cc1F` [Compound I-104, N-(5-{[(2,4-difluorophenyl)sulfonyl]amino}-6-methoxy-3,4′-bipyridin-2′-yl)acetamide], the inhibition at 1.11 µM was above 99%.

Regarding `CC(=O)Nc1cc(-c2cnc3cn(S(=O)(=O)C4CC4)nc3c2)ccn1` [Compound I-105, N-{4-[2-(cyclopropylsulfonyl)-2H-pyrazolo[4,3-b]pyridin-6-yl]pyridin-2-yl}acetamide], the inhibition at 1.11 µM was above 99%.

`CC(=O)Nc1cc(-c2cncc(NC(=O)Cc3ccccc3)c2)ccn1` [Compound I-106, N-(2′-acetamido-3,4′-bipyridin-5-yl)-2-phenylacetamide]: the inhibition at 1.11 µM came to 64%.

Turning to `COc1ncc(-c2ccnc(NC(C)=O)c2)cc1S(=O)(=O)Nc1ccc(F)cc1F` [Compound I-107, N-{5-[(2,4-difluorophenyl)sulfamoyl]-6-methoxy-3,4′-bipyridin-2′-yl}acetamide], the inhibition at 1.11 µM was above 99%.

Turning to `CC(=O)Nc1cc(-c2cnc(N)c(S(=O)(=O)NCC3CC3)c2)ccn1` [Compound I-108, N-{6-amino-5-[(cyclopropylmethyl)sulfamoyl]-3,4′-bipyridin-2′-yl}acetamide], the inhibition at 1.11 µM is above 99%.

Regarding `CC(=O)Nc1cc(-c2cnc(C)c(NS(=O)(=O)c3ccccc3Cl)c2)ccn1` [Compound I-109, N-(5-{[(2-chlorophenyl)sulfonyl]amino}-6-methyl-3,4′-bipyridin-2′-yl)acetamide], the inhibition at 1.11 µM was above 99%.

On to `CC(=O)Nc1cc(-c2cnc(N)c(S(=O)(=O)N(C)CC3CC3)c2)ccn1` [Compound I-110, N-{6-amino-5-[(cyclopropylmethyl)(methyl)sulfamoyl]-3,4′-bipyridin-2′-yl}acetamide], for which the inhibition at 1.11 µM was above 99%.

Turning to `CC(=O)Nc1cc(-c2cnc(C)c(NS(=O)(=O)c3cc(Cl)ccc3Cl)c2)ccn1` [Compound I-111, N-(5-{[(2,5-dichlorophenyl)sulfonyl]amino}-6-methyl-3,4′-bipyridin-2′-yl)acetamide], the inhibition at 1.11 µM is above 99%.

In the case of `CC(=O)Nc1cc(-c2cnc(N(C)C)c(C(=O)Nc3ccc(F)cc3F)c2)ccn1` [Compound I-112, 2′-acetamido-N-(2,4-difluorophenyl)-6-(dimethylamino)-3,4′-bipyridine-5-carboxamide], the inhibition at 1.11 µM is above 99%.

`CC(=O)Nc1cc(-c2cnc(C)c(NS(=O)(=O)c3ccc(OC(F)(F)F)cc3Cl)c2)ccn1` [Compound I-113, N-[5-({[2-chloro-4-(trifluoromethoxy)phenyl]sulfonyl}amino)-6-methyl-3,4′-bipyridin-2′-yl]acetamide]: the inhibition at 1.11 µM is above 99%.

With `CC(=O)Nc1cc(-c2cnc(C)c(NS(=O)(=O)C3CC3)c2)ccn1` [Compound I-114, N-{5-[(cyclopropylsulfonyl)amino]-6-methyl-3,4′-bipyridin-2′-yl}acetamide], the inhibition at 1.11 µM is above 99%.

Take `CC(=O)Nc1cc(-c2cnc(C)c(NC(=O)c3ccc(F)cc3F)c2)ccn1` [Compound I-115, N-(2′-acetamido-6-methyl-3,4′-bipyridin-5-yl)-2,4-difluorobenzamide]: the inhibition at 1.11 µM worked out at 68%.

In the case of `CC(=O)Nc1cc(-c2cnc3cn[nH]c3c2)ccn1` [Compound I-116, N-[4-(1H-pyrazolo[4,3-b]pyridin-6-yl)pyridin-2-yl]acetamide], the inhibition at 1.11 µM amounted to 68%.

In the case of `O=C(Nc1cc(-c2cnc3[nH]ncc3c2)ccn1)C1CC1` [Compound I-117, N-[4-(1H-pyrazolo[3,4-b]pyridin-5-yl)pyridin-2-yl]cyclopropanecarboxamide], the inhibition at 1.11 µM is above 99%.

As to `CC(=O)Nc1cc(-c2cncc(S(=O)(=O)N3CCC(F)(F)C3)c2)ccn1` [Compound I-118, N-{5-[(3,3-difluoropyrrolidin-1-yl)sulfonyl]-3,4′-bipyridin-2′-yl}acetamide], the inhibition at 1.11 µM is above 99%.

Turning to `CC(=O)Nc1cc(-c2cnc(N)c(S(=O)(=O)N(C)C)c2)ccn1` [Compound I-119, N-[6-amino-5-(dimethylsulfamoyl)-3,4′-bipyridin-2′-yl]acetamide], the inhibition at 1.11 µM is above 99%.

(Values after patent US9802960B2 (MILLENNIUM PHARMACEUTICALS, INC., priority 2014, dated 2017).)
